“And” between values parts separate entries of the source, which are not always exact repeats. Equal entries are not always repeated. The source made the active and inactive calls.
Assays:
Coagulation factor XII = molecular target: T1, Coagulation factor XII (Homo sapiens, UniProt P00748); assay type: functional;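 note: activated factor XIIa alpha cleaving a fluorogenic AMC peptide substrate; inhibitor potency from loss of enzyme activity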
T1 sequence (P00748 whole entry): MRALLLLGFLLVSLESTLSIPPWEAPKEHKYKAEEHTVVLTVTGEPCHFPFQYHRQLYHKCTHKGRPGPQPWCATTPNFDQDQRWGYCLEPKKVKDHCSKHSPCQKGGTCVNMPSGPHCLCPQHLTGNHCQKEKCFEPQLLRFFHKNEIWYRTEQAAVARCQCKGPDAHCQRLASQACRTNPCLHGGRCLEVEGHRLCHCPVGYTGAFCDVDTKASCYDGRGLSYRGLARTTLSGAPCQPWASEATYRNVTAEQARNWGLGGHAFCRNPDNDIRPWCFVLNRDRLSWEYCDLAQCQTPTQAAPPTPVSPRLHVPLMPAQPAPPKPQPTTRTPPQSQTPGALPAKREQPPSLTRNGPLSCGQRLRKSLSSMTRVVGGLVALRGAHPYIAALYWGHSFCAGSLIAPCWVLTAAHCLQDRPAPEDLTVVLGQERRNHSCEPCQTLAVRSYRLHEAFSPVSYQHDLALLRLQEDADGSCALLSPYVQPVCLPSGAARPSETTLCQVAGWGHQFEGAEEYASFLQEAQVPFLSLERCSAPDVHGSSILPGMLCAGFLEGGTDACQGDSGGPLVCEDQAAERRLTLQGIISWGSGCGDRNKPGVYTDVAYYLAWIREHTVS

[1] = growth suppression of PTEN-null colon cells, dose response, cell-based, HCT116 PTEN knockout (AID 1047); assay type: functional;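 note: HCT116 colon tumor cells with PTEN knocked out; cells exposed to compound for 60 hours before readout; potency for loss of cell viability measured by luminescence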
Estrogen receptor = molecular target: T2, Estrogen receptor (Homo sapiens, UniProt P03372);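 note: potency for inhibiting coactivator peptide recruitment to the receptor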
T2 sequence (P03372 whole entry): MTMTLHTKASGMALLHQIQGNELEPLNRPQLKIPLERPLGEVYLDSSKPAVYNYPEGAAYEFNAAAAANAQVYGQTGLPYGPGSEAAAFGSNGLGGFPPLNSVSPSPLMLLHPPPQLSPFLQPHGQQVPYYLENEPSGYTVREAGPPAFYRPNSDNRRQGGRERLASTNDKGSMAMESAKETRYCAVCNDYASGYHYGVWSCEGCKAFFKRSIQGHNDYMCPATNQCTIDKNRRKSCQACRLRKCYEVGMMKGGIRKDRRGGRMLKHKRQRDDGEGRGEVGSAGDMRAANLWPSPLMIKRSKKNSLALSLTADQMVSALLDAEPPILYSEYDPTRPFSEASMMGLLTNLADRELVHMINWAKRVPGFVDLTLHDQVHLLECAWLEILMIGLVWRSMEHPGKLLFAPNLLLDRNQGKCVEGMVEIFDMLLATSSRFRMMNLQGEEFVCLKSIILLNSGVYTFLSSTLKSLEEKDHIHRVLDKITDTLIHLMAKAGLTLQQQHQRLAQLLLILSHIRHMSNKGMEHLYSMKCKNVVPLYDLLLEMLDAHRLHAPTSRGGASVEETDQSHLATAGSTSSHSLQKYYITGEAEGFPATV

[2] = growth suppression of beta-catenin-knockout colon cells, dose response, cell-based, HCT116, human colon tumor (AID 1045); assay type: functional;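 note: HCT116 colon tumor cells with beta catenin knocked out; cells exposed to compound for 60 hours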
Keap1/Nrf2 = Keap1/Nrf2 (Homo sapiens, UniProt Q14145); test: Keap1-Nrf2 protein-protein interaction inhibitors, dose response, biochemical, fluorescence polarization, cherry-picked samples (AID 588683)
Chain of Keap1/Nrf2 (Q16236 whole entry): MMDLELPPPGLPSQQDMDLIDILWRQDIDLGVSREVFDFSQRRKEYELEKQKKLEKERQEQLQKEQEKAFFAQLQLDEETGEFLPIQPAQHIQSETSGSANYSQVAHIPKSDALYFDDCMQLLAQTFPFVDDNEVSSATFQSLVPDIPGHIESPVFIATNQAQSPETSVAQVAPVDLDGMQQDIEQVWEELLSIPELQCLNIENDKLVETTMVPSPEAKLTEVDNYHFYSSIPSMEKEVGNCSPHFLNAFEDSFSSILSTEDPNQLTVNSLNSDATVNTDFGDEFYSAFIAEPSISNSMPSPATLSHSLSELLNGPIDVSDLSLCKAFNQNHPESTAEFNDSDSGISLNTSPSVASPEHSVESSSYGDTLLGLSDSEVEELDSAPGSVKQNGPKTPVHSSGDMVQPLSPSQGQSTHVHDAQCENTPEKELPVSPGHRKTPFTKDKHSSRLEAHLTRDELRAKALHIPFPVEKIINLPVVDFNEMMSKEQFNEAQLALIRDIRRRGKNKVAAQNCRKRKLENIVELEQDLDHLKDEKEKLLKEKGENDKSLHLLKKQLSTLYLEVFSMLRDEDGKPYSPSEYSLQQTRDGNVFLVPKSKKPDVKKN
Chain of Keap1/Nrf2 (Q14145 whole entry): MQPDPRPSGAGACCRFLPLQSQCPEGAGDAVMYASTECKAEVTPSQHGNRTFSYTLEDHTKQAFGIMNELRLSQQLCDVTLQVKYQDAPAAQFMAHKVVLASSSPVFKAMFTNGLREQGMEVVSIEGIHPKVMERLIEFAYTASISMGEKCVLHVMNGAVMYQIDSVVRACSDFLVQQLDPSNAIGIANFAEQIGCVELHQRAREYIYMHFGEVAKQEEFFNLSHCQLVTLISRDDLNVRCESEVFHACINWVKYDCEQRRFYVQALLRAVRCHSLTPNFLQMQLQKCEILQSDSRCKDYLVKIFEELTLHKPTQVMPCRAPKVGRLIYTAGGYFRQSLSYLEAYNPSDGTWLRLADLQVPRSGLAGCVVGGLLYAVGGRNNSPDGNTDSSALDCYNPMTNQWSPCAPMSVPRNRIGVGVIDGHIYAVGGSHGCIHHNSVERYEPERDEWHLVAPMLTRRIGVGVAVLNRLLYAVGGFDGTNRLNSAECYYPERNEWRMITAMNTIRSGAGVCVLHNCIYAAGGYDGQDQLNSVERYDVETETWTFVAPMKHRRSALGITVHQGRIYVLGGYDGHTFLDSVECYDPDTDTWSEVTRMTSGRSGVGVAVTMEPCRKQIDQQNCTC

ORF 73 = molecular target: T3, ORF 73 (Human herpesvirus 8, UniProt O40947); test: inhibitors of C-LANA binding to LBS DNA, dose response, biochemical, fluorescence polarization, cherry-picked samples (AID 504725); design: species or system Human gammaherpesvirus 8;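 note: fluorescence polarization of a labeled DNA duplex reporting LANA DNA binding; potency is for inhibitors that block LANA binding to the DNA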
T3 sequence (O40947 whole entry): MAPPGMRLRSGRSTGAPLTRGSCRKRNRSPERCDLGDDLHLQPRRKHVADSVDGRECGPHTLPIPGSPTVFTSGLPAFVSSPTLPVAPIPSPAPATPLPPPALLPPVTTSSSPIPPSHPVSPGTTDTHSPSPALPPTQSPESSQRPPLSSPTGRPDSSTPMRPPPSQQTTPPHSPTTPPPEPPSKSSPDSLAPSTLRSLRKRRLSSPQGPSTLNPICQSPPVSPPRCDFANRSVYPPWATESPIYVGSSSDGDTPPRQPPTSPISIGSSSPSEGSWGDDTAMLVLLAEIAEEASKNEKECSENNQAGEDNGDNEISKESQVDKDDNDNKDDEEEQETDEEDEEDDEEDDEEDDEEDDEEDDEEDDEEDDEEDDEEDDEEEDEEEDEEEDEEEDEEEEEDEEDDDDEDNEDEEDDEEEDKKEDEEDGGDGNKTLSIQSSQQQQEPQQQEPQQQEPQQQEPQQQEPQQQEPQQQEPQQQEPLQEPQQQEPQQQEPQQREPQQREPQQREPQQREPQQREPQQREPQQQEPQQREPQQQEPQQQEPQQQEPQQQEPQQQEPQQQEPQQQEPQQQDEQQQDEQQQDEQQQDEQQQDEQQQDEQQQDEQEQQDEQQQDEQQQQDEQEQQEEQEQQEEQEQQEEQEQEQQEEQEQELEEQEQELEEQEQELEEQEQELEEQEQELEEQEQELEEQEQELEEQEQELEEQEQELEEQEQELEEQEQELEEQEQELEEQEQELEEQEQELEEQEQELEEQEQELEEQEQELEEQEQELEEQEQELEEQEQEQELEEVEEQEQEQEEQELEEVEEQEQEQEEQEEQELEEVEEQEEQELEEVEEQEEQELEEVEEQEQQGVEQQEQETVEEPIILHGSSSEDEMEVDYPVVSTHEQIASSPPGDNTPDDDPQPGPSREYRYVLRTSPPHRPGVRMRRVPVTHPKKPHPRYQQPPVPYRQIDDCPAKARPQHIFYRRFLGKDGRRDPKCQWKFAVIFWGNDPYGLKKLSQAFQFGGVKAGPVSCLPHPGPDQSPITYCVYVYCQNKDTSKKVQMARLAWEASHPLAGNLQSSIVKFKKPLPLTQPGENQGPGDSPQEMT

14-3-3 protein gamma = molecular target: T4, 14-3-3 protein gamma (Homo sapiens, UniProt P61981); test: modulators of 14-3-3 gamma client binding – dose response (AID 711); assay type: functional
T4 sequence (P61981 whole entry): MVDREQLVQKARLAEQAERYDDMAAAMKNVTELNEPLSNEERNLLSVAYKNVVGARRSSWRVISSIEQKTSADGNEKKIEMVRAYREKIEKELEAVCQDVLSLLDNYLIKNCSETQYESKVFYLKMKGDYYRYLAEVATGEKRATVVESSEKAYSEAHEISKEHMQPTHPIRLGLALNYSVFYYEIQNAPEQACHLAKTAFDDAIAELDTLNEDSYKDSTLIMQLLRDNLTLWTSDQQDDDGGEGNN

[3] = THP-1 cell cytotoxicity, dose response, cytotoxicity control for non-replicating M. tuberculosis project (AID 489025); assay type: functional
[4] = Vero E6 cell cytotoxicity, dose response, cytotoxicity control for non-replicating M. tuberculosis project, secondary assay (AID 492998); assay type: functional, VeroE6; settings: Vero C1008
[5] = molecular target: T5, Ubiquitin-conjugating enzyme E2 N (Homo sapiens, UniProt P61088); assay type: functional;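 note: Dose-response confirmation in a TR-FRET assay detecting UBC13-driven polyubiquitin chain formation, inhibition measured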
T5 sequence (P61088 whole entry): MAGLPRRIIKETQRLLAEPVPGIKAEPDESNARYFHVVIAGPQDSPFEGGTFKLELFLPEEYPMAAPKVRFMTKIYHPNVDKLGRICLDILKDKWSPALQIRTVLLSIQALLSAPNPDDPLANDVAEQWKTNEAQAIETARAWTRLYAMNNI

cells = assay type: functional
A-375 = test: A375 melanoma cell viability reduction, dose response, counter-screen for MITF modulator project, cherry-pick samples, set 2 (AID 540335); assay type: functional, cell-based; settings: Homo sapiens
HEK293 [6] = test: cells; settings: Homo sapiens
HEK293 [7] = test: cells; settings: Homo sapiens; remark: listed apart in the source
[8] = molecular target: T6, Microphthalmia-associated transcription factor (Homo sapiens, UniProt O75030); test: TRPM1 promoter luciferase signal decrease, dose response, MITF inhibitor project, cell-based, SK-MEL-5, cherry-picked, set 3 (AID 493073); assay type: functional
T6 sequence (O75030 whole entry): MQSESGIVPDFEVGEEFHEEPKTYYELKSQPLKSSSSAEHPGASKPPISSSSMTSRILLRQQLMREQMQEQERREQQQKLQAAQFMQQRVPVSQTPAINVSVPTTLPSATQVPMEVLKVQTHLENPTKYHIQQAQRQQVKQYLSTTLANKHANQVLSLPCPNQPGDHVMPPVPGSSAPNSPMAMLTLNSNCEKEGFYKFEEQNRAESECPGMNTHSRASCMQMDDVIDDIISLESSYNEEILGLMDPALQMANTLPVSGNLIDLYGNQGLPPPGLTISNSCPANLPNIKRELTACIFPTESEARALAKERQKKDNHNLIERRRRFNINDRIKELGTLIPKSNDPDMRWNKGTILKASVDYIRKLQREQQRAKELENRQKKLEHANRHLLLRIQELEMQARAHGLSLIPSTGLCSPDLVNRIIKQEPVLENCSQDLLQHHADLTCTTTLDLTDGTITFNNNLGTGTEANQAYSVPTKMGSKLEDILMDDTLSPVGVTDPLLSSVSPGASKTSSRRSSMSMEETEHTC

[9] = molecular target: E3 ubiquitin-protein ligase Mdm2 (Homo sapiens, UniProt Q00987); test: enhancers of MDM2-luciferase reporter signal, concentration-effect titration, project on inhibitors of MDM2 ubiquitin ligase, cellular assay, luminescent readout, 384-well plate format (AID 1394); assay type: functional;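 note: MDM2 E3 inhibitors raise luminescence so EC50 is for signal enhancement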
Chain of E3 ubiquitin-protein ligase Mdm2 (Q00987 whole entry): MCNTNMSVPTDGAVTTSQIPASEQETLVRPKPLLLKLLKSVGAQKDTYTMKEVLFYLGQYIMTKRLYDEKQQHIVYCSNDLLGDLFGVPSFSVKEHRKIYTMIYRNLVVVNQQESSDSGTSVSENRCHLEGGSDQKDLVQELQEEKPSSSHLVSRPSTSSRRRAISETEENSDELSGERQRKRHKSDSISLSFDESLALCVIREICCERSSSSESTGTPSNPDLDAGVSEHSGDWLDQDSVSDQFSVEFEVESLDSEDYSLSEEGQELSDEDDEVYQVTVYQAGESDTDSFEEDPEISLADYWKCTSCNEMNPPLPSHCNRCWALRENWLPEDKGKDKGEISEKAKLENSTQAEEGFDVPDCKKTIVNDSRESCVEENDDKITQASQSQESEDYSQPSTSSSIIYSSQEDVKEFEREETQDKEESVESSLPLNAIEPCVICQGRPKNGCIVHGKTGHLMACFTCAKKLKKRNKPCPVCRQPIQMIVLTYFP

Phosphomannomutase 2 = molecular target: T7, Phosphomannomutase 2 (Homo sapiens, UniProt O15305); test: Counter screen SAR assay for PMM2 inhibitors via a fluorescence intensity assay. [Related pubchem assays (depositor defined):AID1545, AID1574]
T7 sequence (O15305 whole entry): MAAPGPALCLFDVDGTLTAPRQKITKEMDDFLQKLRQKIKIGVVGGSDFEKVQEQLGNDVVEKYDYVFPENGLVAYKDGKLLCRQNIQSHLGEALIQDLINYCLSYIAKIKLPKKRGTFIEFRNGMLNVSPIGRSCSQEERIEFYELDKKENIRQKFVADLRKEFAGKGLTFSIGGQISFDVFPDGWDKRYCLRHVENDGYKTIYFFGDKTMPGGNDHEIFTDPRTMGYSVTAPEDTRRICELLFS

[10] = molecular target: T8, Mannose-6-phosphate isomerase (Homo sapiens, UniProt P34949); test: PMI enzyme inhibitors, confirmation, biochemical, fluorescence intensity (AID 1535)
T8 sequence (P34949 whole entry): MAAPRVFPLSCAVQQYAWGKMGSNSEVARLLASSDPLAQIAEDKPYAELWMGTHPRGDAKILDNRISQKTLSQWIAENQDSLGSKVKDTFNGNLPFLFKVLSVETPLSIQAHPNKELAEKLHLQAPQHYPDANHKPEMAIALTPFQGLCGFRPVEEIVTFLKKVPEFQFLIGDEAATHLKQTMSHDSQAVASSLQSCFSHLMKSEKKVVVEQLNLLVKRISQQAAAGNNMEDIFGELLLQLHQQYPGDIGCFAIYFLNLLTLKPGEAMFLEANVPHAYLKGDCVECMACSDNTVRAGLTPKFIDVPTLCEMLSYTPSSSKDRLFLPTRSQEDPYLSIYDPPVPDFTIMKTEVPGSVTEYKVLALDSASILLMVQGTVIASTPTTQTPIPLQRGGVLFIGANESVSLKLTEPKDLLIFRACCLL

[11] = inhibitors of HIV Env-driven cell fusion, dose response, cherry-pick (AID 652057); assay type: functional, cell-based
[12] = inhibitors of clade B AD8 Env fusion, dose response, cell-based, cherry-pick (AID 652062); assay type: functional;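 note: luciferase signal from cell-cell fusion driven by HIV-1 clade B AD8 Env; potency is for inhibitors of fusion seen as a drop in luminescence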
[13] = off-target signal loss in HeLa-CEM21 co-culture – HeLa F-luc CTL cells, cherry-picked, counter-screen for HIV-1 Env fusion inhibitor project, dose response (AID 652040); assay type: functional, cell-based;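 note: potency for signal decrease marking cytotoxic or nonspecific inhibition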
[14] = ZM109 Env clade C HIV-1 fusion inhibitors, dose response, HeLa effector, CEM target cells, luciferase, cherry-pick (AID 652058); assay type: functional, cell-based
[15] = CEM21 lymphoblast cell cytotoxicity, dose response, cytotoxicity control for viral fusion inhibitor project, CellTiter-Glo luminescence, cherry-picked (AID 652042); assay type: functional, cell-based;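 note: potency for signal decrease meaning cytotoxicity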

Cc1ccc(N/C=C2/C(=O)N(c3ccc4c(c3)OCO4)C(=O)c3ccccc32)cc1
IC50 (Coagulation factor XII): > 50 µM (inactive) | EC50 [1]: 8.15 µM (active) | IC50 (Estrogen receptor): 19.8 µM (active) | EC50 [2]: 9.32 µM (active)

c1ccc2c(c1)CCCN2Cc1nnnn1CC1CCCO1 (centres undefined)
AC50 (Keap1/Nrf2): > 52 µM (inactive)

O=C(O)c1ccccc1C1=Nc2ccc(O)cc2Oc2cc(O)ccc21
AC50 (Keap1/Nrf2): 4.97 µM (active) | AC50 (ORF 73): 5.76 µM (active) | IC50 (14-3-3 protein gamma): 5.02 µM (active)

Cc1ccc2nc(N(CCCN(C)C)C(=O)c3ccc4c(c3)CCCC4)sc2c1
CC50 [3]: 16.5 µM (active) | CC50 [4]: > 20 µM (active) | IC50 [5]: > 20 µM (inactive) | IC50 (cells): 22.8 µM (active) | AC50 (A-375): 19.7 µM (active) | EC50 [1]: 15.2 µM (active) | EC50 [2]: 12.1 µM (active)

COc1ccc(C2CC(C(F)(F)F)n3ncc(C(=O)NCC4CCCO4)c3N2)cc1OC (centres undefined)
EC50 (HEK293 [6]): > 59.6 µM (inactive) | EC50 (HEK293 [7]): > 59.6 µM (inactive)

O=C1NC(=O)N(CCc2ccc(F)cc2)C(=O)/C1=C\C=C\c1ccccc1
AC50 [8]: 8.26 µM (active) | AC50 (A-375): 33.6 µM (active) | EC50 [9]: 0.13 µM (not active)

Clc1nss/c1=N\c1cccnc1
IC50 (Phosphomannomutase 2): > 65.8 µM (active) | IC50 [10]: 16.7 µM (active) and 13.2 µM (active)

COc1ccc(CC(N)c2csc(NC(=O)Nc3ccccc3Cc3ccccc3)n2)cc1 (centres undefined)
AC50 [11]: < 0.26 µM (active) | AC50 [12]: 0.832 µM (active) | AC50 [13]: 0.381 µM (active) | EC50 (HEK293 [6]): > 59.7 µM (inactive) | EC50 (HEK293 [7]): > 59.7 µM (inactive) | AC50 [14]: 0.304 µM (active) | AC50 [15]: 12.4 µM (active)
